Source: US6803499B1, “Methods and compositions for the production of stably transformed, fertile monocot plants and cells thereof” (DeKalb Genetics Corporation, priority 1989, dated 2004)

Test system: SC82 cells
Test: Bialaphos selection of SC82 suspension culture cells on filters
Format: cell-based, Zea mays
Description: The suspension culture (designated SC82) used in the initial experiments (see Example 8) was derived from embryogenic Type-II callus of A188×B73. Following bombardment (see Example 8), cells on filters were resuspended in nonselective liquid medium, cultured for 1 to 2 weeks and transferred to filters overlaying solid medium containing 1 or 3 mg/l bialaphos. The degree of inhibition of tissue growth during selection was dependent upon the density of the cells on the filter and on the concentration of bialaphos used.
Using either selection protocol (1 or 3 mg/l bialaphos), resistant cell colonies emerged on the selection plates of SC82 bombarded with pDPG165 approximately 6 to 7 weeks after bombardment (FIG. 2A). Bialaphos-resistant calli were maintained and expanded on selection medium. Much of this tissue was embryogenic (FIG. 2B). […] These were controls which confirm the prediction that cells without the bar gene are not resistant to bialaphos.

C[C@H](NC(=O)[C@H](C)NC(=O)[C@@H](N)CCP(C)(=O)O)C(=O)O [bialaphos]
growth of cells cultured on bialaphos (SC82 cells, 0.5 PCV/filter, 1 mg/l bialaphos): 30-50 % of nonselected growth
growth of cells on the original selection filter (SC82 cells, 0.5 PCV/filter, 3 mg/l bialaphos): ~10 % of nonselected growth
colony growth on selection plates (cells from untransformed suspension cultures, 1 or 3 mg/l bialaphos): No colony growth
